Measured values as given in patent US9676760B2, “Fused heterocyclic compounds as ion channel modulators” (Gilead Sciences, Inc., priority 2011, dated 2017).

Target: wild-type human cardiac sodium channel, hNav1.5 (Homo sapiens, UniProt Q14524)
Experiment: Late INa screening assay (QPatch whole cell patch clamp, HEK293)
Assay type: cell-based
Conditions: HEK293, percent block of late INa; compound at 1 μM; 10 μM Tefluthrin; read-out: Late INa 1 μM
Description: The late sodium current (Late INa) and peak sodium current (Peak INa) assays are performed on an automated electrophysiology platform, QPatch 16× (Sophion Bioscience, Copenhagen, Denmark), which uses the whole cell patch clamp technique to measure currents through the cell membrane of up to 16 cells at a time. The assay uses an HEK293 (human embryonic kidney) cell line heterologously expressing the wild-type human cardiac sodium channel, hNav1.5, purchased from Millipore (Billerica, Mass.). No beta subunits were coexpressed with the Na channel alpha subunit. Cells are maintained with standard tissue culture procedures and stable channel expression is maintained with 400 μg/mL Geneticin in the culture medium. Cells isolated for use on QPatch are incubated for 5 minutes in Detachin 1×(Genlantis, San Diego, USA) at 37° C. to ensure that 80-90% of the cells are single and not part of a cell cluster. Experiments are carried out at 23-25° C.
For both the Late INa and Peak INa assays, series resistance compensation is set to 100% and series resistance and whole-cell compensation are performed automatically. Currents are digitized at 25 kHz and low-pass filtered at 12 kHz and 10 kHz for the late and peak INa assays, respectively. Currents through open sodium channels are automatically recorded and stored in the Sophion Bioscience Oracle database (Sophion Bioscience, Copenhagen, Denmark). Analysis is performed using QPatch Assay and database software and data are compiled in Excel.
Compound stocks are routinely made by the Gilead Sample Bank in plastic vials to 10 mM in dimethyl sulfoxide (DMSO). In some cases, when compounds are not soluble in DMSO, they are made in 100% ethanol. Stocks are sonicated as necessary. The extracellular solution for screening Late INa is composed of: 140 mM NaCl, 4 mM KCl, 1.8 mM CaCl2, 0.75 mM MgCl2 and 5 mM HEPES with pH adjusted to 7.4 using NaOH. The intracellular solution used to perfuse the inside of the cells for both the Late INa and Peak INa assays contains: 120 mM CsF, 20 mM CsCl, 5 mM EGTA, 5 mM HEPES and pH adjusted to 7.4 with CsOH. Compounds are diluted in extracellular solution to 1 μM in glass vials and then transferred to glass well plates before robotic addition to the cells. The 0 mM Na extracellular solution (0Na-ECF) used at the end of each experiment for the Late INa and Peak INa assays to measure baseline current contains: 140 mM N-methyl-D-glucamine; 4 mM KCl; 1.8 mM CaCl2; 0.75 mM MgCl2; 5 mM HEPES and pH was adjusted to 7.4 with HCl.
For the Late INa assay, sodium channels are activated every 10 seconds (0.1 Hz) by depolarizing the cell membrane to −20 mV for 250 milliseconds (ms) from a holding potential of −120 mV. In response to a −20 mV voltage step, typical hNav1.5 sodium currents activate rapidly to a peak negative current and then inactivate nearly completely within 3-4 ms.
Compounds were tested to determine their activity in blocking the late sodium current. Late INa was generated by adding 10 μM Tefluthrin (pyrethroid) to the extracellular solution while recording Na currents. […] ATX-II and tefluthrin occupy distinct, non-overlapping binding sites and modify Na^+ channel function differently to increase late INa. […] After establishing the whole cell recording configuration, late INa activator is added to each well 4 times over a 16-17 minute period so that the late component of the Na current reaches a stable value.
Results are reported as percent block of late INa.

Chain of wild-type human cardiac sodium channel, hNav1.5 (Q14524 whole entry): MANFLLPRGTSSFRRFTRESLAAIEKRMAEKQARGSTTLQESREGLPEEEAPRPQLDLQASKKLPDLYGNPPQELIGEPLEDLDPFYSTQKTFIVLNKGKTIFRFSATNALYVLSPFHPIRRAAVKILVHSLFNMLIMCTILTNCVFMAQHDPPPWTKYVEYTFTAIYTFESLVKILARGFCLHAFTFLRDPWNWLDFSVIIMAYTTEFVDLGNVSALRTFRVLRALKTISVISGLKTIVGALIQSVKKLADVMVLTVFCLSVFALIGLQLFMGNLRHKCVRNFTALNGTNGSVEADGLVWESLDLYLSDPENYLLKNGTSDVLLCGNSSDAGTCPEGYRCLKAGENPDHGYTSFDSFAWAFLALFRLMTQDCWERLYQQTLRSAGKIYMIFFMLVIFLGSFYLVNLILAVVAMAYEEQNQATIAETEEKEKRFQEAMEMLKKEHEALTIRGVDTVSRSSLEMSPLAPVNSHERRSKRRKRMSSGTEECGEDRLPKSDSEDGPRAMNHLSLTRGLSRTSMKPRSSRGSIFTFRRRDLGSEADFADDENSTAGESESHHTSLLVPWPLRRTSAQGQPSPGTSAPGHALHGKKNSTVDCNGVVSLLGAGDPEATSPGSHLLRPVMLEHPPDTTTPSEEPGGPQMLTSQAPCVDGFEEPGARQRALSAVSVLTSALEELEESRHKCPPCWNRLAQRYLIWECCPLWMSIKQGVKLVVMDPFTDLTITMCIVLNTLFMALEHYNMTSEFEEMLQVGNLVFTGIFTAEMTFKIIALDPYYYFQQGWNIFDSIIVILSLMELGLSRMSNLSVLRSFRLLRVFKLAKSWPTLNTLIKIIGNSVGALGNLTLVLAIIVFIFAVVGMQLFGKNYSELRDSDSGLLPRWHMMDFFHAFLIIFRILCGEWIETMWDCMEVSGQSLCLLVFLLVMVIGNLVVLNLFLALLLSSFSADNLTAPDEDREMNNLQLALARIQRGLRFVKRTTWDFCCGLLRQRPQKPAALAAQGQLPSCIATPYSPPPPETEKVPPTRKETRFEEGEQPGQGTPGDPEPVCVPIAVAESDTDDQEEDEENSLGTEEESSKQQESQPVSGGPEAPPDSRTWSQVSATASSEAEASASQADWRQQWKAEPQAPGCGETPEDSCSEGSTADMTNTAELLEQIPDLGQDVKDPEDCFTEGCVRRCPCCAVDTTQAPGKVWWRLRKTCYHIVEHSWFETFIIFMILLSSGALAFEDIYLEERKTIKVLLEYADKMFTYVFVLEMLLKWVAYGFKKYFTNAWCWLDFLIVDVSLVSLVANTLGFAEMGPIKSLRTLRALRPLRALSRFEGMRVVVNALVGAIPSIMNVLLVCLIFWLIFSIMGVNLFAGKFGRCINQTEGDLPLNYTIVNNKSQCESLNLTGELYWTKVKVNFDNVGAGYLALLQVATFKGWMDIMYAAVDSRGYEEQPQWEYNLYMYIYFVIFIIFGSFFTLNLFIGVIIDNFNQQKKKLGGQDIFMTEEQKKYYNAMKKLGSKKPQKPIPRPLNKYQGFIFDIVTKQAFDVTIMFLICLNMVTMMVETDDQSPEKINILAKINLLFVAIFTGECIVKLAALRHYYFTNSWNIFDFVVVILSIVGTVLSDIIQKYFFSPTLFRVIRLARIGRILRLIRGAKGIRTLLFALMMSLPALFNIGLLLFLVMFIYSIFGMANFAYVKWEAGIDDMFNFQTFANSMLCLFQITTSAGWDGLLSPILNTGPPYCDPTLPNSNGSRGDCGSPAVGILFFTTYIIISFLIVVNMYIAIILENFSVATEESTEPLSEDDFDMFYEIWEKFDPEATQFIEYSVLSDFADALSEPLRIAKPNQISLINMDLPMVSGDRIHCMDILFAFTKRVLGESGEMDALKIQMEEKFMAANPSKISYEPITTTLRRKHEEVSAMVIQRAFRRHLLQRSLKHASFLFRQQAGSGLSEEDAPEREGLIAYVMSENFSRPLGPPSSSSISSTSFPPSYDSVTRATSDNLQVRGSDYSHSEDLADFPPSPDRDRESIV

| SMILES | inhibition at 1 µM |
| --- | --- |
| CC(C)c1nc(-c2ccc3c(c2)C(=O)N(Cc2ccccn2)CCO3)cs1 [VI-30, 7-(2-isopropylthiazol-4-yl)-4-(pyridin-2-ylmethyl)-3,4-dihydrobenzo[f][1,4]oxazepin-5(2H)-one] | 40% |
| Cn1ccnc1C(=O)N1CCOc2ccc(-c3ccc(C(F)(F)F)cc3)cc2C1 [III-37, (1-methyl-1H-imidazol-2-yl)(7-(4-(trifluoromethyl)phenyl)-2,3-dihydrobenzo[f][1,4]oxazepin-4(5H)-yl)methanone] | 41% |
| O=C1c2cc(-c3ccc(CC(F)(F)F)cc3)ccc2OCCN1Cc1ncccn1 [II-150, 4-(pyrimidin-2-ylmethyl)-7-(4-(2,2,2-trifluoroethyl)phenyl)-3,4-dihydrobenzo[f][1,4]oxazepin-5(2H)-one] | 27% |
| O=C1c2cc(-c3ccc(OC(F)(F)F)cc3)ccc2OCCN1Cc1ncc(-c2ccc(C(F)(F)F)nc2)cn1 [II-115, 7-(4-(trifluoromethoxy)phenyl)-4-((5-(6-(trifluoromethyl)pyridin-3-yl)pyrimidin-2-yl)methyl)-3,4-dihydrobenzo[f][1,4]oxazepin-5(2H)-one] | 21% |
| CCOC(=O)c1cccc(CN2CCOc3ccc(-c4ccc(OC(F)(F)F)cc4)cc3C2=O)c1 [II-43, ethyl 3-((5-oxo-7-(4-(trifluoromethoxy)phenyl)-2,3-dihydrobenzo[f][1,4]oxazepin-4(5H)-yl)methyl)benzoate] | 23% |
| O=C1c2cc(-c3ccc(Oc4ccccc4)cc3)ccc2OCCN1Cc1ncccn1 [II-194, 7-(4-phenoxyphenyl)-4-(pyrimidin-2-ylmethyl)-3,4-dihydrobenzo[f][1,4]oxazepin-5(2H)-one] | 63% |
| CC(C)(C)OC(=O)N1CCn2cc(C(=O)N3CCOc4ccc(-c5ccc(C(F)(F)F)cc5)cc4C3)nc2C1 [III-40, tert-butyl 2-(7-(4-(trifluoromethyl)phenyl)-2,3,4,5-tetrahydrobenzo[f][1,4]oxazepine-4-carbonyl)-5,6-dihydroimidazo[1,2-a]pyrazine-7(8H)-carboxylate] | 22% |
| COc1ccnc(CN2CCOc3cnc(-c4ccc(OC(F)(F)F)cc4)cc3C2=O)n1 [XII-14, 4-((4-methoxypyrimidin-2-yl)methyl)-7-(4-(trifluoromethoxy)phenyl)-3,4-dihydropyrido[4,3-f][1,4]oxazepin-5(2H)-one] | 26% |
| C[C@H]1COc2ccc(-c3ccc(C(F)(F)F)cc3)cc2C(=O)N1Cc1ncccn1 [II-12, (S)-3-methyl-4-(pyrimidin-2-ylmethyl)-7-(4-(trifluoromethyl)phenyl)-3,4-dihydrobenzo[f][1,4]oxazepin-5(2H)-one] | 21% |
| O=C1c2cc(CCc3ccc(C(F)(F)F)cc3)ccc2OCCN1Cc1ncccc1F [VIII-9, 4-((3-fluoropyridin-2-yl)methyl)-7-(4-(trifluoromethyl)phenethyl)-3,4-dihydrobenzo[f][1,4]oxazepin-5(2H)-one] | 50% |
| O=S1(=O)c2cc(-c3ccc(C(F)(F)F)cc3)ccc2OCCN1Cc1ncccn1 [IX-2, 2-((pyrimidin-2-yl)methyl)-8-(4-(trifluoromethyl)phenyl)-3,4-dihydro-2H-benzo[b][1,4,5]oxathiazepin-sulfone] | 22% |
| O=C1c2cc(C3=CCCCC3)ccc2OCCN1Cc1ncccn1 [Compound V-3, 7-cyclohexenyl-4-(pyrimidin-2-ylmethyl)-3,4-dihydrobenzo[f][1,4]oxazepin-5(2H)-one] | 23% |
| O=C1c2cc(-c3ccc(OC(F)(F)F)cc3)ccc2OCCN1CCN1CCCC1 [II-3, 4-(2-(pyrrolidin-1-yl)ethyl)-7-(4-(trifluoromethoxy)phenyl)-3,4-dihydrobenzo[f][1,4]oxazepin-5(2H)-one] | 15% |
| O=C1c2cc(-c3ccc(C(F)(F)F)s3)ccc2OCCN1Cc1ncccn1 [VI-37, 4-(pyrimidin-2-ylmethyl)-7-(5-(trifluoromethyl)thiophen-2-yl)-3,4-dihydrobenzo[f][1,4]oxazepin-5(2H)-one] | 48% |
| O=C1c2cc(-c3cnc(N4CCCCC4)nc3)ccc2OCCN1Cc1ncccn1 [VI-11, 7-(2-(piperidin-1-yl)pyrimidin-5-yl)-4-(pyrimidin-2-ylmethyl)-3,4-dihydrobenzo[f][1,4]oxazepin-5(2H)-one] | 19% |
| O=C1c2cc(CCc3ccc(C(F)(F)F)cc3)ccc2OCCN1Cc1ccccn1 [VIII-7, 4-(pyridin-2-ylmethyl)-7-(4-(trifluoromethyl)phenethyl)-3,4-dihydrobenzo[f][1,4]oxazepin-5(2H)-one] | 59% |
| O=C1c2cc(-c3ccc(OC(F)(F)F)cc3)ccc2OCCN1Cc1ncccc1F [II-164, 4-((3-fluoropyridin-2-yl)methyl)-7-(4-(trifluoromethoxy)phenyl)-3,4-dihydrobenzo[f][1,4]oxazepin-5(2H)-one] | 75% |
| O=C1c2cc(-c3ccc(C4CC4)s3)ccc2OCCN1Cc1ncccn1 [VI-36, 7-(5-cyclopropylthiophen-2-yl)-4-(pyrimidin-2-ylmethyl)-3,4-dihydrobenzo[f][1,4]oxazepin-5(2H)-one] | 47% |
| O=C1c2cc(-c3ccc(OC4CC4)cc3)ccc2OCCN1Cc1ncccn1 [II-102, 7-(4-cyclopropoxyphenyl)-4-(pyrimidin-2-ylmethyl)-3,4-dihydrobenzo[f][1,4]oxazepin-5(2H)-one] | 21% |
| CC1(C)COC(C)(CCN2CCOc3ccc(-c4ccc(OC(F)(F)F)cc4)cc3C2=O)OC1 [II-35, 7-(4-(trifluoromethoxy)phenyl)-4-(2-(2,5,5-trimethyl-1,3-dioxan-2-yl)ethyl)-3,4-dihydrobenzo[f][1,4]oxazepin-5(2H)-one] | 25% |
| Cc1cc(C(F)(F)F)ccc1-c1ccc2c(c1)C(=O)N(Cc1ncccn1)CCO2 [II-145, 7-(2-methyl-4-(trifluoromethyl)phenyl)-4-(pyrimidin-2-ylmethyl)-3,4-dihydrobenzo[f][1,4]oxazepin-5(2H)-one] | 19% |
| O=C1c2cc(C#Cc3ccccc3)ccc2OCCN1Cc1ncccn1 [VIII-5, 7-(phenylethynyl)-4-(pyrimidin-2-ylmethyl)-3,4-dihydrobenzo[f][1,4]oxazepin-5(2H)-one] | 32% |
| O=C1c2cc(-c3ccc(OC(F)(F)F)cc3)ccc2OCCN1Cc1nccc(N2CCOCC2)n1 [II-133] | 23% |
| O=C1c2cc(-c3ccc(OC(F)(F)F)cc3)ccc2OCCN1CCNS(=O)(=O)C1CC1 [II-179, N-(2-(5-oxo-7-(4-(trifluoromethoxy)phenyl)-2,3-dihydrobenzo[f][1,4]oxazepin-4(5H)-yl)ethyl)cyclopropanesulfonamide] | 21% |
| O=C1c2cc(-c3ccc(OC(F)(F)F)cc3)ccc2OCCN1CCCS(=O)(=O)N1CCC1 [II-191, 4-(3-(azetidin-1-ylsulfonyl)propyl)-7-(4-(trifluoromethoxy)phenyl)-3,4-dihydrobenzo[f][1,4]oxazepin-5(2H)-one] | 25% |
| O=C(c1ncc[nH]1)N1CCOc2ccc(-c3ccc(C(F)(F)F)cc3)cc2C1 [III-33, (1H-imidazol-2-yl)(7-(4-(trifluoromethyl)phenyl)-2,3-dihydrobenzo[f][1,4]oxazepin-4(5H)-yl)methanone] | 37% |
| O=C1c2cc(-c3ccc(OC(F)(F)F)cc3)ccc2OCCN1Cc1cc(-c2ccccn2)on1 [II-41, 4-((5-(pyridin-2-yl)isoxazol-3-yl)methyl)-7-(4-(trifluoromethoxy)phenyl)-3,4-dihydrobenzo[f][1,4]oxazepin-5(2H)-one] | 17% |
| O=C1c2cc(-c3ccc(C(F)F)cc3)ccc2OCCN1Cc1ncccn1 [II-124, 7-(4-(difluoromethyl)phenyl)-4-(pyrimidin-2-ylmethyl)-3,4-dihydrobenzo[f][1,4]oxazepin-5(2H)-one] | 17% |
